# Test system: Alopecurus myosuroides (ALOMY)
# Assay: Glasshouse herbicidal test, pre- and post-emergence, percentage damage to the plant
# Type: in vivo
# Settings: post-emergence, 250 g/h, evaluated after 13 days
# Experimental: (§1) Seeds of a variety of test species are sown in standard soil in pots (Lolium perenne (LOLPE), Setaria faberi (SETFA), Alopecurus myosuroides (ALOMY), Echinochloa crus-galli (ECHCG), Avena fatua (AVEFA)). After cultivation for one day (pre-emergence) or after 8 days cultivation (post-emergence) under controlled conditions in a glasshouse (at 24/16° C., day/night; 14 hours light; 65% humidity), the plants are sprayed with an aqueous spray solution derived from the formulation of the technical active ingredient in acetone/water (50:50) solution containing 0.5% Tween 20 (polyoxyethelyene sorbitan monolaurate, CAS RN 9005-64-5). Compounds are applied at 250 g/h. The test plants are then grown in a glasshouse under controlled conditions in a glasshouse (at 24/16° C., day/night; 14 hours light; 65% humidity) and watered twice daily. After 13 days for pre and post-emergence, the test is evaluated for the percentage damage caused to the plant. The biological activities are shown in the following table on a five-point scale (5=80-100%; 4=60-79%; 3=40-59%; 2=20-39%; 1=0-19%).
row,SMILES,ALOMY POST percentage damage caused to the plant (five-point scale)
1,CC#Cc1cc(C)c(C2C(=O)CC3(CCNC(=O)C3)CC2=O)c(C)c1 (centres unmarked) [Compound A2],3 (3=40-59%)
2,CC#Cc1cc(C)c(C2C(=O)CC3(CCCN(C(C)=O)C3)CC2=O)c(C)c1 (centres unmarked) [Compound A3],5 (5=80-100%)
3,CC#Cc1cc(C)c(C2C(=O)CC3(CCN(C(C)=O)C3)CC2=O)c(C)c1 (centres unmarked) [Compound A4],5 (5=80-100%)
4,CC#Cc1cc(C)c(C2C(=O)CC3(CCN(C)C(=O)C3=O)CC2=O)c(C)c1 (centres unmarked) [Compound A5],5 (5=80-100%)
5,CC#Cc1cc(C)c(C2C(=O)CC3(CCCN(C(=O)OC(C)(C)C)CC3)CC2=O)c(C)c1 (centres unmarked) [Compound A6],5 (5=80-100%)

# Same assay, conditions: pre-emergence, 250 g/h, evaluated after 13 days
row,SMILES,ALOMY PRE percentage damage caused to the plant (five-point scale)
1,CC#Cc1cc(C)c(C2C(=O)CC3(CCNC(=O)C3)CC2=O)c(C)c1 (centres unmarked) [Compound A2],3 (3=40-59%)
2,CC#Cc1cc(C)c(C2C(=O)CC3(CCCN(C(C)=O)C3)CC2=O)c(C)c1 (centres unmarked) [Compound A3],2 (2=20-39%)
3,CC#Cc1cc(C)c(C2C(=O)CC3(CCN(C(C)=O)C3)CC2=O)c(C)c1 (centres unmarked) [Compound A4],5 (5=80-100%)
4,CC#Cc1cc(C)c(C2C(=O)CC3(CCN(C)C(=O)C3=O)CC2=O)c(C)c1 (centres unmarked) [Compound A5],3 (3=40-59%)
5,CC#Cc1cc(C)c(C2C(=O)CC3(CCCN(C(=O)OC(C)(C)C)CC3)CC2=O)c(C)c1 (centres unmarked) [Compound A6],4 (4=60-79%)

# Test system: Setaria faberi (SETFA)
# Assay: as above
# Type: in vivo
# Settings: post-emergence, 250 g/h, evaluated after 13 days
# Experimental: as §1
row,SMILES,SETFA POST percentage damage caused to the plant (five-point scale)
1,CC#Cc1cc(C)c(C2C(=O)CC3(CCNC(=O)C3)CC2=O)c(C)c1 (centres unmarked) [Compound A2],5 (5=80-100%)
2,CC#Cc1cc(C)c(C2C(=O)CC3(CCCN(C(C)=O)C3)CC2=O)c(C)c1 (centres unmarked) [Compound A3],5 (5=80-100%)
3,CC#Cc1cc(C)c(C2C(=O)CC3(CCN(C(C)=O)C3)CC2=O)c(C)c1 (centres unmarked) [Compound A4],5 (5=80-100%)
4,CC#Cc1cc(C)c(C2C(=O)CC3(CCN(C)C(=O)C3=O)CC2=O)c(C)c1 (centres unmarked) [Compound A5],5 (5=80-100%)
5,CC#Cc1cc(C)c(C2C(=O)CC3(CCCN(C(=O)OC(C)(C)C)CC3)CC2=O)c(C)c1 (centres unmarked) [Compound A6],5 (5=80-100%)

# Same assay, conditions: pre-emergence, 250 g/h, evaluated after 13 days
row,SMILES,SETFA PRE percentage damage caused to the plant (five-point scale)
1,CC#Cc1cc(C)c(C2C(=O)CC3(CCNC(=O)C3)CC2=O)c(C)c1 (centres unmarked) [Compound A2],5 (5=80-100%)
2,CC#Cc1cc(C)c(C2C(=O)CC3(CCCN(C(C)=O)C3)CC2=O)c(C)c1 (centres unmarked) [Compound A3],3 (3=40-59%)
3,CC#Cc1cc(C)c(C2C(=O)CC3(CCN(C(C)=O)C3)CC2=O)c(C)c1 (centres unmarked) [Compound A4],5 (5=80-100%)
4,CC#Cc1cc(C)c(C2C(=O)CC3(CCN(C)C(=O)C3=O)CC2=O)c(C)c1 (centres unmarked) [Compound A5],5 (5=80-100%)
5,CC#Cc1cc(C)c(C2C(=O)CC3(CCCN(C(=O)OC(C)(C)C)CC3)CC2=O)c(C)c1 (centres unmarked) [Compound A6],5 (5=80-100%)

# Test system: Lolium perenne (LOLPE)
# Assay: as above
# Type: in vivo
# Settings: post-emergence, 250 g/h, evaluated after 13 days
# Experimental: as §1
row,SMILES,LOLPE POST percentage damage caused to the plant (five-point scale)
1,CC#Cc1cc(C)c(C2C(=O)CC3(CCNC(=O)C3)CC2=O)c(C)c1 (centres unmarked) [Compound A2],4 (4=60-79%)
2,CC#Cc1cc(C)c(C2C(=O)CC3(CCCN(C(C)=O)C3)CC2=O)c(C)c1 (centres unmarked) [Compound A3],5 (5=80-100%)
3,CC#Cc1cc(C)c(C2C(=O)CC3(CCN(C(C)=O)C3)CC2=O)c(C)c1 (centres unmarked) [Compound A4],5 (5=80-100%)
4,CC#Cc1cc(C)c(C2C(=O)CC3(CCN(C)C(=O)C3=O)CC2=O)c(C)c1 (centres unmarked) [Compound A5],5 (5=80-100%)
5,CC#Cc1cc(C)c(C2C(=O)CC3(CCCN(C(=O)OC(C)(C)C)CC3)CC2=O)c(C)c1 (centres unmarked) [Compound A6],5 (5=80-100%)

# Same assay, conditions: pre-emergence, 250 g/h, evaluated after 13 days
row,SMILES,LOLPE PRE percentage damage caused to the plant (five-point scale)
1,CC#Cc1cc(C)c(C2C(=O)CC3(CCNC(=O)C3)CC2=O)c(C)c1 (centres unmarked) [Compound A2],4 (4=60-79%)
2,CC#Cc1cc(C)c(C2C(=O)CC3(CCCN(C(C)=O)C3)CC2=O)c(C)c1 (centres unmarked) [Compound A3],2 (2=20-39%)
3,CC#Cc1cc(C)c(C2C(=O)CC3(CCN(C(C)=O)C3)CC2=O)c(C)c1 (centres unmarked) [Compound A4],5 (5=80-100%)
4,CC#Cc1cc(C)c(C2C(=O)CC3(CCN(C)C(=O)C3=O)CC2=O)c(C)c1 (centres unmarked) [Compound A5],5 (5=80-100%)
5,CC#Cc1cc(C)c(C2C(=O)CC3(CCCN(C(=O)OC(C)(C)C)CC3)CC2=O)c(C)c1 (centres unmarked) [Compound A6],5 (5=80-100%)

# Test system: Echinochloa crus-galli (ECHCG)
# Assay: as above
# Type: in vivo
# Settings: post-emergence, 250 g/h, evaluated after 13 days
# Experimental: as §1
row,SMILES,ECHCG POST percentage damage caused to the plant (five-point scale)
1,CC#Cc1cc(C)c(C2C(=O)CC3(CCNC(=O)C3)CC2=O)c(C)c1 (centres unmarked) [Compound A2],5 (5=80-100%)
2,CC#Cc1cc(C)c(C2C(=O)CC3(CCCN(C(C)=O)C3)CC2=O)c(C)c1 (centres unmarked) [Compound A3],5 (5=80-100%)
3,CC#Cc1cc(C)c(C2C(=O)CC3(CCN(C(C)=O)C3)CC2=O)c(C)c1 (centres unmarked) [Compound A4],5 (5=80-100%)
4,CC#Cc1cc(C)c(C2C(=O)CC3(CCN(C)C(=O)C3=O)CC2=O)c(C)c1 (centres unmarked) [Compound A5],5 (5=80-100%)
5,CC#Cc1cc(C)c(C2C(=O)CC3(CCCN(C(=O)OC(C)(C)C)CC3)CC2=O)c(C)c1 (centres unmarked) [Compound A6],5 (5=80-100%)

# Same assay, conditions: pre-emergence, 250 g/h, evaluated after 13 days
row,SMILES,ECHCG PRE percentage damage caused to the plant (five-point scale)
1,CC#Cc1cc(C)c(C2C(=O)CC3(CCNC(=O)C3)CC2=O)c(C)c1 (centres unmarked) [Compound A2],3 (3=40-59%)
2,CC#Cc1cc(C)c(C2C(=O)CC3(CCCN(C(C)=O)C3)CC2=O)c(C)c1 (centres unmarked) [Compound A3],2 (2=20-39%)
3,CC#Cc1cc(C)c(C2C(=O)CC3(CCN(C(C)=O)C3)CC2=O)c(C)c1 (centres unmarked) [Compound A4],5 (5=80-100%)
4,CC#Cc1cc(C)c(C2C(=O)CC3(CCN(C)C(=O)C3=O)CC2=O)c(C)c1 (centres unmarked) [Compound A5],5 (5=80-100%)
5,CC#Cc1cc(C)c(C2C(=O)CC3(CCCN(C(=O)OC(C)(C)C)CC3)CC2=O)c(C)c1 (centres unmarked) [Compound A6],5 (5=80-100%)

# Test system: Avena fatua (AVEFA)
# Assay: as above
# Type: in vivo
# Settings: post-emergence, 250 g/h, evaluated after 13 days
# Experimental: as §1
row,SMILES,AVEFA POST percentage damage caused to the plant (five-point scale)
1,CC#Cc1cc(C)c(C2C(=O)CC3(CCNC(=O)C3)CC2=O)c(C)c1 (centres unmarked) [Compound A2],4 (4=60-79%)
2,CC#Cc1cc(C)c(C2C(=O)CC3(CCCN(C(C)=O)C3)CC2=O)c(C)c1 (centres unmarked) [Compound A3],5 (5=80-100%)
3,CC#Cc1cc(C)c(C2C(=O)CC3(CCN(C(C)=O)C3)CC2=O)c(C)c1 (centres unmarked) [Compound A4],5 (5=80-100%)
4,CC#Cc1cc(C)c(C2C(=O)CC3(CCN(C)C(=O)C3=O)CC2=O)c(C)c1 (centres unmarked) [Compound A5],4 (4=60-79%)
5,CC#Cc1cc(C)c(C2C(=O)CC3(CCCN(C(=O)OC(C)(C)C)CC3)CC2=O)c(C)c1 (centres unmarked) [Compound A6],4 (4=60-79%)

# Same assay, conditions: pre-emergence, 250 g/h, evaluated after 13 days
row,SMILES,AVEFA PRE percentage damage caused to the plant (five-point scale)
1,CC#Cc1cc(C)c(C2C(=O)CC3(CCNC(=O)C3)CC2=O)c(C)c1 (centres unmarked) [Compound A2],3 (3=40-59%)
2,CC#Cc1cc(C)c(C2C(=O)CC3(CCCN(C(C)=O)C3)CC2=O)c(C)c1 (centres unmarked) [Compound A3],3 (3=40-59%)
3,CC#Cc1cc(C)c(C2C(=O)CC3(CCN(C(C)=O)C3)CC2=O)c(C)c1 (centres unmarked) [Compound A4],5 (5=80-100%)
4,CC#Cc1cc(C)c(C2C(=O)CC3(CCN(C)C(=O)C3=O)CC2=O)c(C)c1 (centres unmarked) [Compound A5],3 (3=40-59%)
5,CC#Cc1cc(C)c(C2C(=O)CC3(CCCN(C(=O)OC(C)(C)C)CC3)CC2=O)c(C)c1 (centres unmarked) [Compound A6],4 (4=60-79%)

# Reference: patent US12479804B2, “Herbicidal compounds” (SYNGENTA CROP PROTECTION AG, priority 2019, dated 2025)
